ChEMBL document CHEMBL5331089, “Mucormycosis: A hidden mystery of fungal infection, possible diagnosis, treatment and development of new therapeutic agents” (Eur J Med Chem, 2023)
Converted amounts (≈) assume the structure as drawn.

Key:
[1] = test system: Syncephalastrum racemosum; experiment: Antifungal activity against Syncephalastrum racemosum RCMB 016001 assessed as zone of inhibition measured after 24 hrs; assay type: functional
[2] = test system: Syncephalastrum racemosum; experiment: Antifungal activity against Syncephalastrum racemosum assessed as fungal growth inhibition measured for 24 to 24 hrs by agar well diffusion assay; assay type: functional, organism-based
Rhizomucor pusillus [3] = experiment: Antifungal activity against Rhizomucor pusillus clinical isolate assessed as fungal growth inhibition measured after 48 hrs by microtitre plate reader analysis; assay type: functional
Rhizomucor pusillus [4] = experiment: Antifungal activity against Rhizomucor pusillus CN(M)231 assessed as fungal growth inhibition measured after 48 hrs by microtitre plate reader assay; assay type: functional
Rhizopus arrhizus [5] = experiment: Antifungal activity against Rhizopus oryzae clinical isolate assessed as fungal growth inhibition by checkerboard broth microdilution assay; assay type: functional
Rhizopus arrhizus [6] = experiment: Antifungal activity against Rhizopus oryzae clinical isolate assessed as fungal growth inhibition measured after 24 to 72 hrs by microtitre plate reader analysis; assay type: functional; details: time 24-72 hrs
Rhizopus arrhizus [7] = experiment: Antifungal activity against Rhizopus oryzae CBS 109939 assessed as fungal growth inhibition by checkerboard broth microdilution assay; assay type: functional
Rhizopus arrhizus [8] = experiment: Antifungal activity against Rhizopus oryzae clinical isolate RO-969 assessed as fungal growth inhibition measured after 24 hrs; assay type: functional
Rhizopus arrhizus [9] = experiment: Antifungal activity against Rhizopus oryzae clinical isolate RO-275 assessed as fungal growth inhibition measured after 24 hrs; assay type: functional
Rhizopus arrhizus [10] = experiment: Antifungal activity against Rhizopus oryzae clinical isolate RO-449 assessed as fungal growth inhibition measured after 24 hrs; assay type: functional
Rhizopus stolonifer = experiment: Antifungal activity against Rhizopus stolonifer SZMC 11101 assessed as fungal growth inhibition measured after 24 hrs by microtitre plate reader assay; assay type: functional
[11] = test system: Syncephalastrum racemosum; experiment: Antifungal activity against Syncephalastrum racemosum SZMC 2011 assessed as fungal growth inhibition measured after 24 hrs by microtitre plate reader assay; assay type: functional
Mycotypha africana = experiment: Antifungal activity against Mycotypha africana NRRL 2978 assessed as fungal growth inhibition measured after 24 hrs by microtitre plate reader assay; assay type: functional
Mucor circinelloides [12] = experiment: Antifungal activity against Mucor circinelloides MS 12 assessed as fungal growth inhibition measured after 48 hrs by plate reader assay; assay type: functional
Rhizopus arrhizus [13] = experiment: Antifungal activity against Rhizopus arrhizus assessed as fungal growth inhibition; assay type: functional
Absidia = experiment: Antifungal activity against Absidia assessed as fungal growth inhibition measured upto 48 hrs by spectrophotometric analysis; assay type: functional
Mucor circinelloides [14] = experiment: Antifungal activity against Mucor circinelloides assessed as fungal growth inhibition measured at 36 to 48 hrs; assay type: functional; details: time 36-48 hrs
Rhizomucor miehei [15] = experiment: Antifungal activity against Rhizomucor miehei CBS 360.92 assessed as fungal growth inhibition measured after 48 hrs by microtitre plate reader assay; assay type: functional
Lichtheimia corymbifera = experiment: Antifungal activity against Absidia corymbifera SZMC 2010 assessed as fungal growth inhibition measured after 48 hrs by microtitre plate reader assay; assay type: functional
Rhizopus arrhizus [16] = experiment: Antifungal activity against Rhizopus oryzae clinical isolate assessed as fungal growth inhibition; assay type: functional
Rhizopus homothallicus = experiment: Antifungal activity against Rhizopus homothallicus clinical isolate assessed as fungal growth inhibition; assay type: functional
Mucor circinelloides [17] = experiment: Antifungal activity against Mucor circinelloides clinical isolate assessed as fungal growth inhibition; assay type: functional
[18] = test system: Cunninghamella bertholletiae; experiment: Antifungal activity against Cunninghamella bertholletiae clinical isolate assessed as fungal growth inhibition; assay type: functional
Rhizomucor pusillus [19] = experiment: Antifungal activity against environmental and clinical isolate Rhizomucor pusillus assessed as fungal growth inhibition measured after 24 to 48 hrs by plate reader assay; assay type: functional; details: time 24-48 hrs
Rhizomucor miehei [20] = experiment: Antifungal activity against environmental and clinical isolate Rhizomucor miehei assessed as fungal growth inhibition measured after 24 to 48 hrs by plate reader assay; assay type: functional; details: time 24-48 hrs
Mucorales = experiment: Antifungal activity against Mucorales assessed as fungal growth inhibition measured 24 to 48 hrs; assay type: functional; details: time 24-48 hrs
Rhizomucor pusillus [21] = experiment: Antifungal activity against Rhizomucor pusillus assessed as fungal growth inhibition measured at 36 to 48 hrs; assay type: functional; details: time 36-48 hrs
Rhizopus arrhizus [22] = experiment: Antifungal activity against Rhizopus oryzae CBS 112.07 assessed as fungal growth inhibition measured after 48 hrs by microtitre plate reader assay; assay type: functional
Rhizopus arrhizus [23] = experiment: Antifungal activity against Rhizopus oryzae assessed as fungal growth inhibition at 12.5 ug/ml measured after 24 hrs by microtiter plate assay relative to control; assay type: functional
Mucor circinelloides [24] = experiment: Antifungal activity against Mucor circinelloides assessed as fungal growth inhibition at 100 ug/ml measured after 24 hrs by microtiter plate assay relative to control; assay type: functional
Phycomyces blakesleeanus = experiment: Antifungal activity against Phycomyces blakesleeanus assessed as fungal growth inhibition at 6.26 ug/ml measured after 24 hrs by microtiter plate assay relative to control; assay type: functional
[25] = Antifungal activity against Rhizopus microsporus var. oligosporus NRRL 514 assessed as fungal growth inhibition measured after 48 hrs by microtitre plate reader assay; assay type: functional

CCOC(=O)N1C/C(=C\c2ccc(Cl)cc2)C(=O)[C@@]2(C1)[C@H](c1ccc(Cl)cc1)[C@H]1CCCN1[C@]21C(=O)Nc2ccccc21
inhibition zone (IZ) [1]: 39.46 mm

C[C@@H]1[C@H](O)[C@@H](C)/C=C/C=C/C=C/C=C/C=C/C=C/C=C/[C@H](O[C@@H]2O[C@H](C)[C@@H](O)[C@H](N)[C@@H]2O)C[C@@H]2O[C@](O)(C[C@@H](O)C[C@@H](O)[C@H](O)CC[C@@H](O)C[C@@H](O)CC(=O)O[C@H]1C)C[C@H](O)[C@H]2C(=O)O [AMPHOTERICIN B]
inhibition zone (IZ) [1]: 22 mm
IC50 [2]: 14.3 µg/mL (≈ 15.4 µM)
MIC ([2]; time 24-24 hrs): 1.95 µg/mL (≈ 2.11 µM)
MIC (Rhizomucor pusillus [3]): 2 µg/mL (≈ 2.16 µM)
MIC90 (Rhizomucor pusillus [3]): 1 µg/mL (≈ 1.08 µM)
MIC (Rhizomucor pusillus [4]): 1 µg/mL (≈ 1.08 µM)
MIC (Rhizopus arrhizus [5]): 2 µg/mL

CC(C)c1c(C(=O)Nc2ccccc2)c(-c2ccccc2)c(-c2ccc(F)cc2)n1CC[C@@H](O)C[C@@H](O)CC(=O)O [ATORVASTATIN]
MIC (Rhizopus arrhizus [6]): 32 µg/mL (≈ 57.3 µM)
MIC (Rhizopus arrhizus [7]): 32 µg/mL
MIC (Rhizopus arrhizus [8]): 64 µg/mL (≈ 115 µM)
MIC (Rhizopus arrhizus [9]): 64 µg/mL (≈ 115 µM)
MIC (Rhizopus arrhizus [10]): 64 µg/mL (≈ 115 µM)
MIC (Rhizopus stolonifer): 64 µg/mL (≈ 115 µM)
MIC [11]: 32 µg/mL (≈ 57.3 µM)
MIC (Mycotypha africana): 8 µg/mL (≈ 14.3 µM)
MIC (Mucor circinelloides [12]): 16 µg/mL (≈ 28.6 µM)

OC(Cn1cncn1)(Cn1cncn1)c1ccc(F)cc1F [FLUCONAZOLE]
inhibition zone (IZ) [1]: 22 mm

Nc1c(-c2cc(Cc3ccc(COc4ccccn4)cc3)no2)ccc[n+]1COP(=O)([O-])O [FOSMANOGEPIX]
MEC (Rhizopus arrhizus [13]): 0.25 µg/mL

CCC(C)n1ncn(-c2ccc(N3CCN(c4ccc(OCC5COC(Cn6cncn6)(c6ccc(Cl)cc6Cl)O5)cc4)CC3)cc2)c1=O (stereo unspecified) [ITRACONAZOLE]
MIC (Absidia): 0.03 µg/mL (≈ 0.0425 µM)
MIC (Mucor circinelloides [14]): > 8 µg/mL

CC[C@H](C)C(=O)O[C@H]1C[C@@H](C)C=C2C=C[C@H](C)[C@H](CC[C@@H](O)C[C@@H](O)CC(=O)O)[C@H]21 [LOVASTATIN ACID]
MIC90 (Rhizomucor pusillus [4]): 11 µg/mL (≈ 26 µM)
MIC90 (Rhizomucor miehei [15]): 11 µg/mL (≈ 26 µM)
MIC90 (Lichtheimia corymbifera): 11 µg/mL (≈ 26 µM)

CC[C@H](C)C(=O)O[C@H]1C[C@@H](C)C=C2C=C[C@H](C)[C@H](CC[C@@H]3C[C@@H](O)CC(=O)O3)[C@H]21 [LOVASTATIN]
MIC (Rhizopus arrhizus [6]): 128 µg/mL (≈ 316 µM)
MIC90 (Rhizomucor pusillus [4]): 3.6 µg/mL (≈ 8.9 µM)
MIC (Rhizopus arrhizus [7]): 128 µg/mL
MIC (Rhizopus arrhizus [16]): 32.6 µg/mL (≈ 80.5 µM)
MIC (Rhizopus homothallicus): 40 µg/mL (≈ 98.9 µM)
MIC (Mucor circinelloides [17]): 16 µg/mL (≈ 39.6 µM)
MIC [18]: 32 µg/mL (≈ 79.1 µM)
MIC [11]: 16 µg/mL (≈ 39.6 µM)
MIC (Rhizomucor pusillus [19]): 1 µg/mL (≈ 2.47 µM)
MIC (Rhizomucor miehei [20]): 64 µg/mL (≈ 158 µM)

CC[C@@H]([C@H](C)O)n1ncn(-c2ccc(N3CCN(c4ccc(OC[C@@H]5CO[C@@](Cn6cncn6)(c6ccc(F)cc6F)C5)cc4)CC3)cc2)c1=O [POSACONAZOLE]
MIC (Mucorales): 1 µg/mL (≈ 1.43 µM)
MIC (Rhizomucor pusillus [21]): > 8 µg/mL

CC(C)c1nc(N(C)S(C)(=O)=O)nc(-c2ccc(F)cc2)c1/C=C/[C@@H](O)C[C@@H](O)CC(=O)O [ROSUVASTATIN]
MIC90 (Rhizopus arrhizus [22]): 96 µg/mL (≈ 199 µM)
MIC90 (Rhizomucor pusillus [4]): 11 µg/mL (≈ 22.8 µM)
MIC90 (Rhizomucor miehei [15]): 11 µg/mL (≈ 22.8 µM)
MIC90 (Lichtheimia corymbifera): 33 µg/mL (≈ 68.5 µM)
MIC (Rhizopus stolonifer): 64 µg/mL (≈ 133 µM)
MIC [11]: 32 µg/mL (≈ 66.5 µM)
MIC (Mycotypha africana): 8 µg/mL (≈ 16.6 µM)
MIC (Mucor circinelloides [12]): 32 µg/mL (≈ 66.5 µM)

CCC(C)(C)C(=O)O[C@H]1C[C@@H](C)C=C2C=C[C@H](C)[C@H](CC[C@@H]3C[C@@H](O)CC(=O)O3)[C@H]21 [SIMVASTATIN]
MIC90 (Rhizomucor pusillus [4]): 11 µg/mL (≈ 26.3 µM)
MIC90 (Lichtheimia corymbifera): 96 µg/mL (≈ 229 µM)
MIC (Rhizopus arrhizus [7]): 64 µg/mL
MIC [11]: 8 µg/mL (≈ 19.1 µM)

CO[C@H]1C[C@@H]2CC[C@@H](C)[C@@](O)(O2)C(=O)C(=O)N2CCCC[C@H]2C(=O)O[C@H]([C@H](C)C[C@@H]2CC[C@@H](O)[C@H](OC)C2)CC(=O)[C@H](C)/C=C(\C)[C@@H](O)[C@@H](OC)C(=O)[C@H](C)C[C@H](C)/C=C/C=C/C=C/1C [SIROLIMUS]
inhibition at 12.5 µg/mL (Rhizopus arrhizus [23]): ≤ 80%
inhibition at 100 µg/mL (Mucor circinelloides [24]): ≤ 80%
inhibition at 6.26 µg/mL (Phycomyces blakesleeanus): ≤ 80%

CCC(C)(C)C(=O)O[C@H]1C[C@@H](C)C=C2C=C[C@H](C)[C@H](CC[C@@H](O)C[C@@H](O)CC(=O)O)[C@H]21 [TENIVASTATIN]
MIC90 (Rhizomucor pusillus [4]): 1.2 µg/mL (≈ 2.75 µM)
MIC90 (Lichtheimia corymbifera): 11 µg/mL (≈ 25.2 µM)
MIC90 [25]: 33 µg/mL (≈ 75.6 µM)

C[C@@H](c1ncncc1F)[C@](O)(Cn1cncn1)c1ccc(F)cc1F [VORICONAZOLE]
MIC (Mucor circinelloides [14]): > 8 µg/mL
MIC (Rhizomucor pusillus [21]): > 8 µg/mL
